Reference: US20260191192A1, “ANTIMICROBIAL COMPOSITIONS COMPRISING PELARGONIC ACID” (LANXESS Corporation, priority 2023, published 2026)

Legend:
[1] = test system: mixed fungal inoculum: Candida albicans ATCC #10231 and Aspergillus brasiliensis ATCC #16404; test: Challenge test (preservative efficacy), mixed fungal inoculum; assay type: cell-based
Experimental: (§1) The preservative activity in representative rinse-off and leave-on formulations was evaluated using a modification of the Personal Care Products Council (PCPC—formerly the Cosmetic, Toiletry and Fragrance Association) protocol (Machtiger, et al. 2001. Determination of the Efficacy of Preservation of Non-Eye Area Water Miscible Cosmetic and Toiletry Formulations: Collaborative Study. J of AOAC International. 84:1, 101-109).
(§2) This evaluation was conducted using a four week, two or three-cycle (i.e., two-cycle for personal care and three-cycle for home care applications) microbial preservative efficacy test (i.e., challenge test) at 25° C. to determine the preservative efficacy of each treatment. Phenoxyethanol, benzyl alcohol and pelargonic acid were tested alone and in various combinations. The pelargonic acid used in the testing was purchased from Sigma-Aldrich. Combinations of phenoxyethanol or benzyl alcohol with benchmark multifunctional booster compounds were also tested for comparison. The preservative and booster ingredients were dosed and mixed thoroughly at room temperature into various formulations, specifically different personal care formulations including a lotion (leave-on, Table 1), a micellar water (rinse-off, Table 2), and a body wash formulation (rinse-off, Table 3) and different home care formulations including a manual dishwashing formulation (Table 4) and a liquid laundry detergent formulation (Table 5). […] Carbomers are a commonly used synthetic rheological modifier in personal care products. The formulation below was made by heating the aqueous (A) and oil (B) phases separately to 75-80° C. The oil phase was then poured into the aqueous phase and mixed by a homogenizer at approximately 45° C. The formed oil-in-water emulsion was cooled to room temperature. Triethanolamine and/or diluted sodium hydroxide was used to adjust the final pH to 6.3 or 6.5 (as indicated in the examples below).
(§3) After dosing, the samples were divided into two separate five gram aliquots. One aliquot was inoculated with 50 μl of a diluted bacterial pool, and the second aliquot was inoculated with 50 μl of a diluted fungal pool as described below. Unpreserved product samples were included as a growth control.
(§4) For personal care products, a mixed bacterial inoculum was prepared using 24-hour cultures of the test bacteria (Table 6) grown in trypticase soy broth (TSB). For home care products, a mixed bacterial inoculum was prepared using 24-hour cultures of the test bacteria either from Table 6 (full pool) or Table 7 (simplified pool) grown in trypticase soy broth (TSB). Details are disclosed in the home care examples below. Equal volumes of the bacterial test strains were combined and diluted one to ten in phosphate buffer to obtain an inoculum of approximately 5×10^7 to 5×10^8 colony forming units per ml (cfu/ml). The test samples were inoculated with 1% of the mixed bacterial inoculum. For both personal care and home care products, a mixed fungal inoculum was prepared using cell suspensions of the yeast Candida albicans ATCC #10231 and the mold Aspergillus brasiliensis ATCC #16404 in phosphate buffer. Equal volumes of the fungal test strains were combined and diluted one to ten with phosphate buffer to obtain an inoculum of approximately 5×10^6 to 5×10^7 cfu/ml. The test samples were inoculated with 1% of the mixed fungal inoculum.
(§5) For personal care products, the samples were subjected to two microbial challenges at time zero and inoculated a second time after seven days. For home care products, the samples were subjected to three microbial challenges at time zero and inoculated a second and third time after seven and fourteen days, respectively. The number of microorganisms added to each sample was determined by a standard Most Probable Number (MPN) determination in Trypticase Soy Broth (TSB) for bacteria and Potato Dextrose Broth (PDB) for fungi. Samples were incubated at 25° C. for the test duration of four weeks.

[2] = test system: mixed bacterial inoculum (Table 6); test: Challenge test (preservative efficacy), mixed bacterial inoculum, full pool (Table 6); assay type: cell-based
Experimental: as §1, §2, §3, §4, §5

[3] = ZenBio Cupric Ion Chelating (CIC) Assay; assay type: physicochemical; settings: calculated from a EDTA calibration curve, Pelargonic Acid at 775 μM
Experimental: The chelation property of the pelargonic acid was measured by using the ZenBio Cupric Ion Chelating (CIC) Assay (Cat #AOX-16). The assay measured the capacity of the pelargonic acid to chelate free cupric ions in solution, thereby inhibiting Cu(II) binding to pyrocatechol violet (PV) for generating a highly colored complex. The absorbance of the Cupric-PV complex was measured at a wavelength of 632 nm. The cupric ion chelating activity was determined as the percent of total PV over the Cu(II) binding. Ethylenediaminetetraacetic acid (EDTA), a well-known chelating agent, was used as a positive control. A series of EDTA with 7 different concentrations from 0 to 1000 μM were prepared and their corresponding absorbance measured and used as the calibration curve (Cupric ion chelating (%) vs. EDTA concentration). Percent cupric ion chelating was determined following the following calculations and Equation 1. The background absorbance value by averaging the absorbance values of the three background wells (no CuSO4 or sample). The average background absorbance was then subtracted from all the sample absorbance values. The maximal absorbance value (Absmax) was determined by averaging the absorbance values of the three wells containing CuSO4, PV and assay buffer. Abstest in Equation 1 is the absorbance of the test sample.
The calibration curve (Cupric ion chelating (%) vs. EDTA concentration) was fit by using a polynomial curve after log 10 transforming the concentrations (R2>0.98).

[4] = test system: bacteria (Table 6 pool) and fungi; test: Challenge test, overall result (full bacteria pool and fungi); assay type: cell-based
Experimental: as §1, §2, §3, §4, §5

[5] = test system: mixed bacterial inoculum for home care (Table 7); test: Challenge test (preservative efficacy), mixed bacterial inoculum, simplified pool (Table 7); assay type: cell-based, Pseudomonas aeruginosa, Staphylococcus aureus; settings: dosed 0.02 wt %
Experimental: as §1, §2, §3, §4, §5

[6] = test system: bacteria (Table 7 pool) and fungi; test: Challenge test, overall result (simplified bacteria pool and fungi); assay type: cell-based; settings: dosed 0.02 wt %
Experimental: as §1, §2, §3, §4, §5

[7] = body wash, pH 6.5, Example 1E, dosed 0.5 wt %
[8] = micellar water, pH 6.0, Example 1B, dosed 0.5 wt %
[9] = micellar water, pH 6.0, bacteria inoculation ~10^7 cfu/ml, Example 1B, dosed 0.5 wt %
[10] = lotion with carbomer, pH 6.3, Example 1A, dosed 0.4 wt %
[11] = micellar water, pH 6.0, Example 1B, dosed 0.3 wt %
[12] = micellar water, pH 6.0, Example 1C, dosed 0.3 wt %
[13] = liquid laundry detergent, pH 7.5, Example 1H, dosed 0.02 wt %
[14] = lotion with carbomer, pH 6.5, Example 1I, dosed 0.016 wt %

CCCCC(CC)COCC(O)CO (stereo not shown) [2-ethyl-hexyl glycerin (EHG), 2-ethyl-hexyl glycerin]
Fungi growth rating Result [1, 7]: Fail (growth rating score caused by fungi of more than 2 at days 21-28 of the testing period)
Fungi growth rating Result [1, 8]: Fail (growth rating score caused by fungi of more than 2 at days 21-28 of the testing period)
Bacteria growth rating Result [2, 7]: Fail (growth rating score caused by bacteria of 2 or more at days 21-28 of the testing period)
Bacteria growth rating Result [2, 9]: Fail (growth rating score caused by bacteria of 2 or more at days 21-28 of the testing period)
Calculated EDTA equivalent ([3]; listed as Ethylhexylglycerin): ~0 µM
Calculated EDTA equivalent ([3]; listed as ethylhexylglycerin): ~ 0 μM
Overall Result [4, 7]: Fail
Overall Result [4, 8]: Fail

OCc1ccccc1 [Benzyl Alcohol (BA), benzyl alcohol]
Fungi growth rating Result [1, 7]: Pass (growth rating score caused by fungi of 2 or less at days 21-28 of the testing period)
Fungi growth rating Result [1, 10]: Fail (growth rating score caused by fungi of more than 2 at days 21-28 of the testing period)
Fungi growth rating Result [1, 11]: Fail (growth rating score caused by fungi of more than 2 at days 21-28 of the testing period)
Fungi growth rating Result [1, 12]: Fail (growth rating score caused by fungi of more than 2 at days 21-28 of the testing period)
Bacteria growth rating Result [2, 7]: Fail (growth rating score caused by bacteria of 2 or more at days 21-28 of the testing period)
Bacteria growth rating Result [2, 10]: Fail (growth rating score caused by bacteria of 2 or more at days 21-28 of the testing period)
Bacteria growth rating Result ([2]; lotion with carbomer, pH 6.3, Example 1D, dosed 0.4 wt %): Fail (growth rating score caused by bacteria of 2 or more at days 21-28 of the testing period)
Bacteria growth rating Result ([2]; lotion with carbomer, pH 6.3, Example 1D, dosed 0.8 wt %): Fail (growth rating score caused by bacteria of 2 or more at days 21-28 of the testing period)
Bacteria growth rating Result ([2]; micellar water, pH 6.0, bacteria inoculation ~10^7 cfu/ml, Example 1B, dosed 0.3 wt %): Pass (growth rating score caused by bacteria of 1 or less at days 21-28 of the testing period)
Bacteria growth rating Result ([2]; micellar water, pH 6.0, bacteria inoculation ~10^8 cfu/ml, Example 1C, dosed 0.3 wt %): Fail (growth rating score caused by bacteria of 2 or more at days 21-28 of the testing period)
Overall Result [4, 7]: Fail
Overall Result [4, 10]: Fail
Overall Result [4, 11]: Fail
Overall Result [4, 12]: Fail

CCCCCCCC(=O)NO [Caprylhydroxamic acid (CHA), Caprylhydroxamic acid]
Bacteria growth rating Result ([5]; liquid laundry detergent, pH 7.5, simplified bacteria pool, Example 1G): Fail (growth rating score caused by bacteria of 2 or more at days 21-28 of the testing period)
Bacteria growth rating Result ([5]; manual dishwashing formulation, pH 5.5, simplified bacteria pool, Example 1F): Fail (growth rating score caused by bacteria of 2 or more at days 21-28 of the testing period)
Overall Result ([6]; liquid laundry detergent, pH 7.5, Example 1G): Fail
Overall Result ([6]; manual dishwashing formulation, pH 5.5, Example 1F): Fail
Fungi growth rating Result ([1]; liquid laundry detergent, pH 7.5, Example 1G, dosed 0.02 wt %): Fail (growth rating score caused by fungi of more than 2 at days 21-28 of the testing period)
Fungi growth rating Result [1, 13]: Fail (growth rating score caused by fungi of more than 2 at days 21-28 of the testing period)
Fungi growth rating Result [1, 14]: Fail (growth rating score caused by fungi of more than 2 at days 21-28 of the testing period)
Fungi growth rating Result ([1]; manual dishwashing formulation, pH 5.5, Example 1F, dosed 0.02 wt %): Fail (growth rating score caused by fungi of more than 2 at days 21-28 of the testing period)
Bacteria growth rating Result ([2]; liquid laundry detergent, pH 7.5, full bacteria pool, Example 1H, dosed 0.02 wt %): Fail (growth rating score caused by bacteria of 2 or more at days 21-28 of the testing period)
Bacteria growth rating Result [2, 14]: Fail (growth rating score caused by bacteria of 2 or more at days 21-28 of the testing period)
Overall Result [4, 13]: Fail
Overall Result [4, 14]: Fail

CCCCC(O)CO (stereo not shown) [1,2 hexanediol]
Fungi growth rating Result [1, 8]: Fail (growth rating score caused by fungi of more than 2 at days 21-28 of the testing period)
Bacteria growth rating Result [2, 9]: Pass (growth rating score caused by bacteria of 1 or less at days 21-28 of the testing period)
Overall Result [4, 8]: Fail
